# pKi: −log10 of the molar value.
# Target: T1, recombinant human NK3 receptor (Homo sapiens, UniProt P29371)
# T1 construct: expressed in transfected cells; host or cells: HEK293 cells (transient expression), membranes
# T1 sequence (P29371 1-465): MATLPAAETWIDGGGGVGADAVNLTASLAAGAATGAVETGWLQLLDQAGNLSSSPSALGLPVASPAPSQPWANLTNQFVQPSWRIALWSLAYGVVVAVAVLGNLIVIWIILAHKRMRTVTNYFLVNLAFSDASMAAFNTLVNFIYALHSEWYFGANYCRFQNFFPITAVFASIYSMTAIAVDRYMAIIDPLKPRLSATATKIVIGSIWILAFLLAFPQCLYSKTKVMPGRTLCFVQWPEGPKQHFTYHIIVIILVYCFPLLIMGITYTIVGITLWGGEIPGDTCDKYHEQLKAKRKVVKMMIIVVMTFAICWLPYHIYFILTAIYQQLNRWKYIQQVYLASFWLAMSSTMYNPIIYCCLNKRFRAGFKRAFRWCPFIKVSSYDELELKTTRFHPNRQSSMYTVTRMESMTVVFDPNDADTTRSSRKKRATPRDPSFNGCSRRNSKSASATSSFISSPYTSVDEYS
# Assay: [3H]SR142801 competition binding assay
# Conditions: membranes from HEK293 cells transiently expressing recombinant human NK3 receptor; [3H]SR142801 radioligand; 75 min at RT; Ki by Cheng-Prussoff; read-out: Data Ki (hNK-3 receptor affinity)
# Protocol: [^3H]SR142801 Competition Binding Assay
# hNK3 receptor binding experiment were performed using [^3H]SR142801 (Catalog No. TRK1035, specific activity: 74.0 Ci/mmol, Amersham, GE Healthcare UK limited, Buckinghamshire, UK) and membrane isolated from HEK293 cells transiently expressing recombinant human NK3 receptor. After thawing, the membrane homogenates were centrifuged at 48,000×g for 10 min at 4° C., the pellets were resuspended in the 50 mM Tris-HCl, 4 mM MnCl2, 1 μM phosphoramidon, 0.1% BSA binding buffer at pH 7.4 to a final assay concentration of 5 μg protein/well. […] At the end of the incubation, membranes were filtered onto unitfilter (96-well white microplate with bonded GF/C filter preincubated 1 h in 0.3% PEI+0.3% BSA, Packard BioScience, Meriden, Conn.) with a Filtermate 196 harvester (Packard BioScience) and washed 4 times with ice-cold 50 mM Tris-HCl, pH 7.4 buffer. Nonspecific binding was measured in the presence of 10 μM SB222200 for both radioligands. The radioactivity on the filter was counted (5 min) on a Packard Top-count microplate scintillation counter with quenching correction after addition of 45 μl of microscint 40 (Can berra Packard S. A., Zurich, Switzerland) and shaking for 1 h. Inhibition curves were fitted according to the Hill equation: y=100/(1+(x/IC50)^nH), where nH=slope factor using Excel-fit 4 software (Microsoft). IC50 values were derived from the inhibition curve and the affinity constant (Ki) values were calculated using the Cheng-Prussoff equation Ki═IC50/(1+[L]/KD) where [L] is the concentration of radioligand and KD is its dissociation constant at the receptor, derived from the saturation isotherm. All experiments were performed in duplicate and the mean±standard error (SEM) of the individual Ki values was calculated.
row,SMILES,pKi
1,"Cc1noc(-c2ccc(C(=O)N3CCC(C(=O)N[C@@H](c4ccc(F)cc4)C(F)(F)F)(c4ccc(F)cc4)CC3)cc2)n1 (racemic) [Example 202, 4-(4-Fluoro-phenyl)-1-[4-(3-methyl-[1,2,4]oxadiazol-5-yl)-benzoyl]-piperidine-4-carboxylic acid [(SR)-2,2,2-trifluoro-1-(4-fluoro-phenyl)-ethyl]-amide]",8.17
2,"C[C@H](NC(=O)C1(c2ccc(F)cc2)CCN(C(=O)c2ccc(N3CCS(=O)(=O)CC3)cc2)CC1)c1ccc(F)cc1 [Example 1, 1-[4-(1,1-Dioxo-1λ^6-thiomorpholin-4-yl)-benzoyl]-4-(4-fluoro-phenyl)-piperidine-4-carboxylic acid [(S)-1-(4-fluoro-phenyl)-ethyl]-amide]",7.53
3,"C[C@H](NC(=O)C1(c2ccccc2)CCN(C(=O)c2ccc(-c3ccccc3)cc2)CC1)c1ccccc1 [Example 2, 1-(Biphenyl-4-carbonyl)-4-phenyl-piperidine-4-carboxylic acid ((S)-1-phenyl-ethyl)-amide]",7.64
4,"C[C@H](NC(=O)C1(c2ccccc2)CCN(C(=O)C2CCC(c3ccc(Cl)cc3)CC2)CC1)c1ccccc1 (stereo partly drawn) [Example 3, 1-[4-(4- Chlorophenyl)cyclohexanecarbonyl]-4-phenyl-piperidine-4-carboxylic acid ((S)-1-phenyl-ethyl)-amide]",7.32
5,"C[C@H](NC(=O)C1(c2ccccc2)CCN(C(=O)c2ccc(-c3ccc(Cl)c(Cl)c3)cc2)CC1)c1ccccc1 [Example 4, 1-(3′,4′-Dichloro-biphenyl-4-carbonyl)-4-phenyl-piperidine-4-carboxylic acid ((S)-1-phenyl-ethyl)-amide]",7.71
6,"C[C@H](NC(=O)C1(c2ccccc2)CCN(C(=O)c2ccc(-c3ccc(C(F)(F)F)cc3)cc2)CC1)c1ccccc1 [Example 5, 4-Phenyl-1-(4′-trifluoromethyl-biphenyl-4-carbonyl)-piperidine-4-carboxylic acid ((S)-1-phenyl-ethyl)-amide]",7.62
7,"C[C@H](NC(=O)C1(c2ccccc2)CCN(C(=O)c2ccc(-c3ccccn3)cc2)CC1)c1ccccc1 [Example 6, 4-Phenyl-1-(4-pyridin-2-yl-benzoyl)-piperidine-4-carboxylic acid ((S)-1-phenyl-ethyl)-amide]",7.39
8,"C[C@H](NC(=O)C1(c2ccccc2)CCN(C(=O)c2ccc(-c3ccncc3)cc2)CC1)c1ccccc1 [Example 7, 4-Phenyl-1-(4-pyndin-4-yl-benzoyl)-piperidine-4-carboxylic acid ((S)-1-phenyl-ethyl)-amide]",7.40
9,"C[C@H](NC(=O)C1(c2ccccc2)CCN(C(=O)c2ccc(N3CCOCC3)cc2)CC1)c1ccccc1 [Example 8, 1-(4-Morpholin-4-yl-benzoyl)-4-phenyl-piperidine-4-carboxylic acid ((S)-l-phenyl-ethyl)-amide]",7.07
10,"C[C@H](NC(=O)C1(c2ccccc2)CCN(C(=O)c2ccc(N3CCS(=O)(=O)CC3)cc2)CC1)c1ccccc1 [Example 9, 1-[4-(1,1-Dioxo-lλ6-thiomorpholin-4-yl)-benzoyl]-4-phenyl-piperidine-4-carboxylic acid ((S)-1-phenyl-ethyl)-amide]",7.66
11,"C[C@H](NC(=O)C1(c2ccccc2)CCN(C(=O)c2ccc(N3CCOCC3)nc2)CC1)c1ccccc1 [Example 10, 1-(6-Morpholin-4-yl-pyridine-3-carbonyl)-4-phenyl-piperidine-4-carboxylic acid ((S)-1-phenyl-ethyl)-amide]",7.11
12,"C[C@H](NC(=O)C1(c2ccccc2)CCN(C(=O)c2ccc(N3CCCCC3)cc2)CC1)c1ccccc1 [Example 11, 4-Phenyl-1-(4-piperidin-1-yl-benzoyl)-piperidine-4-carboxylic acid ((S)-1-phenyl-ethyl)-amide]",7.36
13,"C[C@H](NC(=O)C1(c2ccccc2)CCN(C(=O)c2ccc(N3CCCCC3)nc2)CC1)c1ccccc1 [Example 12, 4-Phenyl-1-(3,4,5,6-tetrahydro-2H-[l,2′]bipyridinyl-5′-carbonyl)-piperidine-4-carboxylic acid ((S)-1-phenyl-ethyl)-amide]",7.30
14,"C[C@H](NC(=O)C1(c2ccccc2)CCN(C(=O)c2ccc(N3CCN(C)CC3)cc2)CC1)c1ccccc1 [Example 14, 1-[4-(4-Methyl-piperazin-1-yl)-benzoyl]-4-phenyl-piperidine-4-carboxylic acid ((S)-l-phenyl-ethyl)-amide]",7.01
15,"C[C@H](NC(=O)C1(c2ccccc2)CCN(C(=O)c2ccc(-n3cccc3)cc2)CC1)c1ccccc1 [Example 18, 4-Phenyl-1-(4-pyrrol-l-yl-benzoyl)-piperidine-4-carboxylic acid ((S)-1-phenyl-ethyl)-amide]",7.02
16,"Cc1ccc(-c2nc(C(=O)N3CCC(C(=O)N[C@@H](C)c4ccccc4)(c4ccccc4)CC3)cs2)cc1 [Example 21, 4-Phenyl-1 - (2-p-tolyl-thiazole-4-carbonyl)-piperidine-4-carboxylic acid ((S)-1-phenyl-ethyl)-amide]",7.00
17,"C[C@H](NC(=O)C1(c2ccccc2)CCN(C(=O)c2ccc(-c3cnco3)cc2)CC1)c1ccccc1 [Example 22, 1-(4-Oxazol-5-yl-benzoyl)-4-phenyl-piperidine-4-carboxylic acid ((S)-1-phenyl-ethyl)-amide]",7.18
18,"C[C@H](NC(=O)C1(c2ccccc2)CCN(C(=O)c2csc(-c3ccncc3)n2)CC1)c1ccccc1 [Example 27, 4-Phenyl-1-(2-pyridin-4-yl-thiazole-4-carbonyl)-piperidine-4-carboxylic acid ((S)-1-phenyl-ethyl)-amide]",7.12
19,"C[C@H](NC(=O)C1(c2ccccc2)CCN(C(=O)c2csc(-c3cccnc3)n2)CC1)c1ccccc1 [Example 28, 4-Phenyl-1-(2-pyridin-3-yl-thiazole-4-carbonyl)-piperidine-4-carboxylic acid ((S)-1-phenyl-ethyl)-amide]",7.12
20,"C[C@H](NC(=O)C1(c2ccccc2)CCN(C(=O)c2ccc(-n3cncn3)cc2)CC1)c1ccccc1 [Example 34, 4-Phenyl-1-(4-[1,2,4]triazo 1-1-yl-benzoyl)-piperidine-4-carboxylic acid ((S)-1-phenyl-ethyl)-amide]",7.01
21,"C[C@H](NC(=O)C1(c2ccccc2)CCN(C(=O)c2ccc(-c3nnco3)cc2)CC1)c1ccccc1 [Example 35, 1-(4-[l,3,4]Oxadiazol-2-yl-benzoyl)-4-phenyl-piperidine-4-carboxylic acid ((S)-1-phenyl-ethyl)-amide]",7.16
22,"C[C@H](NC(=O)C1(c2ccccc2)CCN(C(=O)c2ccc(-c3ccccc3)cn2)CC1)c1ccccc1 [Example 38, 4-Phenyl-1-(5-phenyl-pyridine-2-carbonyl)-piperidine-4-carboxylic acid ((S)-1-phenyl-ethyl)-amide]",7.67
23,"C[C@H](NC(=O)C1(c2ccccc2)CCN(C(=O)c2ccc(-n3cncn3)nc2)CC1)c1ccccc1 [Example 39, 4-Phenyl-1-(6-[l,2,4]triazol-1-yl-pyridine-3-carbonyl)-piperidine-4-carboxylic acid ((S)-1-phenyl-ethyl)-amide]",7.09
24,"C[C@H](NC(=O)C1(c2ccccc2)CCN(C(=O)c2ccc(-n3cnnn3)cc2)CC1)c1ccccc1 [Example 40, 4-Phenyl-1-(4-tetrazol-1-yl-benzoyl)-piperidine-4-carboxylic acid ((S)-1-phenyl-ethyl)-amide]",7.55
25,"Cc1nc(-c2ccc(C(=O)N3CCC(C(=O)N[C@@H](C)c4ccccc4)(c4ccccc4)CC3)cc2)no1 [Example 41, 1-[4-(5-Methyl-[1,2,4]oxa-diazol-3-yl)-benzoyl]-4-phenyl-piperidine-4-carboxylic acid ((S)-1-phenyl-ethyl)-amide]",8.03
26,"Cc1noc(-c2ccc(C(=O)N3CCC(C(=O)N[C@@H](C)c4ccccc4)(c4ccccc4)CC3)cc2)n1 [Example 43, 1-[4-(3-Methyl-[1,2,4]oxa-diazol-5-yl)-benzoyl]-4-phenyl-piperidine 4-carboxylic acid ((S)-1-phenyl-ethyl)-amide]",8.49

# — patent publication US8324250B2 (Hoffmann-La Roche Inc., priority 2009, dated 2012)
